Experimental findings from ChEMBL document CHEMBL1135253, “Formation of thomasidioic acid from dehydrosinapinic acid dilactone under neutral conditions, and a remaining inhibitory activity against peroxynitrite-mediated protein nitration” (Bioorg Med Chem Lett, 2002) are described below.

The structures appear in SMILES notation.

A short description of test [1]: Inhibitory activity of compound was tested against peroxinitrite in collagen type I with concentration 50 uM of each sample was treated with 1.0 mM peroxynitrite.
Test [2] can be described thus: Inhibitory activity of compound was tested against peroxinitrite in collagen type I at concentration 100 uM of each sample was treated with 1.0 mM peroxynitrite.
Test [3] can be described thus: Inhibitory activity of compound was tested against peroxinitrite of collagen type I with concentration 50 uM of each sample was treated with 1.0 mM peroxynitrite.

In test [1], `COc1cc(/C=C(C(=O)O)\C(=C/c2cc(OC)c(O)c(OC)c2)C(=O)O)cc(OC)c1O` had an Activity of 0.25.
In the case of `COc1cc(/C=C/C(=O)O)cc(OC)c1O`, the Activity in test [2] was 0.3; in test [1], 1.
Turning to `COc1cc([C@H]2c3c(cc(OC)c(O)c3OC)C=C(C(=O)O)[C@@H]2C(=O)O)cc(OC)c1O`, the Activity in test [3] is 0.7.
